TGI data for eleven compounds are collected here from PubChem BioAssay (NCI).

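Compound exposure: 48 hours, 5 concentrations, 96-well plates. TGI: concentration producing complete growth inhibition.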

Some test systems named below: A498 renal; HCC-2998 colon; HOP-92 NSCLC; NCI-H460 lung; NCI/ADR-RES ovarian; OVCAR-5 ovarian; SF-295 CNS; SF-539 CNS; SK-MEL-2 melanoma; T-47D breast; TK-10 renal; UACC-257 melanoma.
What all share (assay): NCI anticancer screen, dose series, 48 h

`CN(CCCNC(=O)c1nn(-c2ccc(Cl)cc2Cl)c2c1ccc1ccccc12)CCCNC(=O)c1nn(-c2ccc(Cl)cc2Cl)c2c1ccc1ccccc12`: the TGI in the experiment on A498 renal was 2.77 µM; with HCC-2998 colon it was 2.91 µM; in the experiment with HOP-92 NSCLC, 3.52 µM; with NCI-H460 lung it was 3.51 µM; in the experiment with NCI/ADR-RES ovarian it was 3.26 µM; in the experiment with OVCAR-5 ovarian, 3.57 µM. Further, the TGI in the experiment on SF-295 CNS amounted to 3.06 µM; in the experiment with SF-539 CNS it was 3.47 µM; with SK-MEL-2 melanoma it was 3.09 µM; in the experiment with T-47D breast it was 3.73 µM; in the experiment on TK-10 renal, 3.41 µM; with UACC-257 melanoma, 3.26 µM.

For the compound `COc1cc2c(cc1OCc1ccccc1)NC(=S)[C@@H]1CCCN1C2=S`, the TGI in the experiment on A498 renal, with HCC-2998 colon, in the experiment with HOP-92 NSCLC, in the experiment on NCI-H460 lung, with NCI/ADR-RES ovarian and with OVCAR-5 ovarian was greater than 100 µM in each case. Also, the TGI in the experiment on SF-295 CNS, in the experiment with SF-539 CNS, with SK-MEL-2 melanoma, in the experiment with T-47D breast, in the experiment on TK-10 renal and in the experiment on UACC-257 melanoma was greater than 100 µM throughout.

As for `N#CCCN(CCN(C(=O)Nc1ccccc1)c1ccccc1)C(=O)Nc1ccccc1`, the TGI in the experiment with A498 renal, with HCC-2998 colon, with HOP-92 NSCLC, in the experiment with NCI-H460 lung, in the experiment with NCI/ADR-RES ovarian and in the experiment with OVCAR-5 ovarian was greater than 100 µM in each case. For the same compound, the TGI in the experiment on SF-295 CNS, with SF-539 CNS, in the experiment on SK-MEL-2 melanoma, in the experiment with T-47D breast, in the experiment on TK-10 renal and in the experiment with UACC-257 melanoma was greater than 100 µM in each case.

As for `N=C(N)SCc1cccc2c(=O)cc(-c3ccccc3)oc12`, the TGI in the experiment with A498 renal was 35.8 µM; with HCC-2998 colon, 27.1 µM; in the experiment on HOP-92 NSCLC, 16.9 µM; in the experiment on NCI-H460 lung it was 22.9 µM; in the experiment on NCI/ADR-RES ovarian it was greater than 100 µM; in the experiment with OVCAR-5 ovarian, 41.8 µM. Also, the TGI was 26.5 µM in the experiment on SF-295 CNS; 20.9 µM in the experiment on SF-539 CNS; 25.2 µM in the experiment with SK-MEL-2 melanoma; 15.9 µM with T-47D breast; 26.8 µM with TK-10 renal; 26 µM with UACC-257 melanoma.

As for `O=C(O)c1ccccc1/C=N/NC1=NCCCCN1`, the TGI with A498 renal, with HCC-2998 colon, with HOP-92 NSCLC, with NCI-H460 lung, in the experiment with NCI/ADR-RES ovarian and in the experiment on OVCAR-5 ovarian was greater than 100 µM each time. Further, the TGI in the experiment on SF-295 CNS, with SF-539 CNS, with SK-MEL-2 melanoma, in the experiment with T-47D breast, in the experiment on TK-10 renal and with UACC-257 melanoma was greater than 100 µM throughout.

Regarding `O=C(/C=C/c1ccc(O)c(O)c1O)OCCc1ccccc1`, the TGI in the experiment with A498 renal is greater than 100 µM; with HCC-2998 colon, greater than 100 µM; in the experiment on HOP-92 NSCLC, greater than 100 µM; in the experiment with NCI-H460 lung, 42.7 µM; in the experiment on NCI/ADR-RES ovarian, 70.7 µM; with OVCAR-5 ovarian, greater than 100 µM. Further, the TGI in the experiment on SF-295 CNS was 35.5 µM; in the experiment on SF-539 CNS, 70.7 µM; with SK-MEL-2 melanoma, greater than 100 µM; with T-47D breast it was greater than 100 µM; in the experiment on TK-10 renal, greater than 100 µM; in the experiment on UACC-257 melanoma, greater than 100 µM.

On to `COc1cc2c(cc1O)[C@@H]1Cc3c(cc(OC)c(OC)c3Oc3cc4c(cc3OC)CCN(C)[C@@H]4Cc3ccc(O)cc3)[C@H](C2)N1C`, for which the TGI was 80.4 µM with A498 renal; greater than 72 µM in the experiment on HCC-2998 colon; greater than 100 µM in the experiment on HOP-92 NSCLC; greater than 100 µM in the experiment with NCI-H460 lung; greater than 100 µM in the experiment on NCI/ADR-RES ovarian; greater than 100 µM in the experiment on OVCAR-5 ovarian. The TGI in the experiment on SF-295 CNS is greater than 100 µM; in the experiment with SF-539 CNS it was 65.2 µM; in the experiment on SK-MEL-2 melanoma, 53.3 µM; with T-47D breast it was greater than 100 µM; in the experiment with TK-10 renal, greater than 100 µM; with UACC-257 melanoma, 44.6 µM.

As to `COC(=O)c1ccccc1/C=C1\Cc2cc(C)c(C)cc2C1=O`, the TGI with A498 renal was greater than 100 µM; in the experiment on HCC-2998 colon it was greater than 100 µM; in the experiment on HOP-92 NSCLC, 59.2 µM; with NCI-H460 lung it was greater than 100 µM; in the experiment on NCI/ADR-RES ovarian, greater than 100 µM; with OVCAR-5 ovarian, greater than 100 µM. The TGI in the experiment with SF-295 CNS was greater than 100 µM; with SF-539 CNS, greater than 100 µM; in the experiment with SK-MEL-2 melanoma it was 68.3 µM; in the experiment with T-47D breast, greater than 100 µM; with TK-10 renal, 86.6 µM; in the experiment on UACC-257 melanoma, greater than 100 µM.

For `C=C1CN(Cc2ccccc2)[C@@H]2CCCCC[C@H](C#N)[C@H]12`, the TGI in the experiment on A498 renal was greater than 100 µM; with HCC-2998 colon, greater than 100 µM; in the experiment with HOP-92 NSCLC it was greater than 93 µM; in the experiment with NCI-H460 lung, greater than 100 µM; in the experiment with NCI/ADR-RES ovarian it was greater than 100 µM; in the experiment with OVCAR-5 ovarian it was greater than 100 µM. In addition, the TGI is greater than 30.7 µM with SF-295 CNS; greater than 100 µM with SF-539 CNS; greater than 100 µM with SK-MEL-2 melanoma; greater than 100 µM with T-47D breast; greater than 100 µM in the experiment on TK-10 renal; greater than 100 µM with UACC-257 melanoma.

With `CC1(C)CC(=O)c2c(nc(SSc3nc4c(c(-c5ccccc5)c3C#N)C(=O)CC(C)(C)C4)c(C#N)c2-c2ccccc2)C1`, the TGI in the experiment on A498 renal, in the experiment on HCC-2998 colon, with HOP-92 NSCLC, in the experiment on NCI-H460 lung, with NCI/ADR-RES ovarian and with OVCAR-5 ovarian was greater than 10 µM throughout. Also, the TGI in the experiment with SF-295 CNS, in the experiment on SF-539 CNS, in the experiment with SK-MEL-2 melanoma, in the experiment on T-47D breast, in the experiment with TK-10 renal and in the experiment on UACC-257 melanoma was greater than 10 µM throughout.

As for `COc1ccc(Cc2nccc3cc(OC)c(OC)cc23)cc1OC`, the TGI with A498 renal, in the experiment with HCC-2998 colon, in the experiment on HOP-92 NSCLC, in the experiment with NCI-H460 lung, with NCI/ADR-RES ovarian and with OVCAR-5 ovarian was greater than 100 µM each time. The TGI with SF-295 CNS, in the experiment on SF-539 CNS, in the experiment on SK-MEL-2 melanoma, in the experiment with T-47D breast, in the experiment with TK-10 renal and with UACC-257 melanoma was greater than 100 µM in each case.
